These results are taken from patent US20260234157A1, “COMPOUND AND METHOD FOR TARGETED DEGRADATION OF ANDROGEN RECEPTOR” (Gan & Lee Pharmaceuticals Co., Ltd., priority 2023, published 2026).

Residue numbers refer to the chain shown, from its start. Where two headings read alike, the source gives them in different places.

Test [1] deals with T1, AR protein (Homo sapiens, UniProt P10275, T878A).
T1 construct: degradation activity of the compounds disclosed in the present disclosure on AR protein in LNCaP cells; host or cells: LNCaP FGC
T1 sequence (P10275 1-920 T878A): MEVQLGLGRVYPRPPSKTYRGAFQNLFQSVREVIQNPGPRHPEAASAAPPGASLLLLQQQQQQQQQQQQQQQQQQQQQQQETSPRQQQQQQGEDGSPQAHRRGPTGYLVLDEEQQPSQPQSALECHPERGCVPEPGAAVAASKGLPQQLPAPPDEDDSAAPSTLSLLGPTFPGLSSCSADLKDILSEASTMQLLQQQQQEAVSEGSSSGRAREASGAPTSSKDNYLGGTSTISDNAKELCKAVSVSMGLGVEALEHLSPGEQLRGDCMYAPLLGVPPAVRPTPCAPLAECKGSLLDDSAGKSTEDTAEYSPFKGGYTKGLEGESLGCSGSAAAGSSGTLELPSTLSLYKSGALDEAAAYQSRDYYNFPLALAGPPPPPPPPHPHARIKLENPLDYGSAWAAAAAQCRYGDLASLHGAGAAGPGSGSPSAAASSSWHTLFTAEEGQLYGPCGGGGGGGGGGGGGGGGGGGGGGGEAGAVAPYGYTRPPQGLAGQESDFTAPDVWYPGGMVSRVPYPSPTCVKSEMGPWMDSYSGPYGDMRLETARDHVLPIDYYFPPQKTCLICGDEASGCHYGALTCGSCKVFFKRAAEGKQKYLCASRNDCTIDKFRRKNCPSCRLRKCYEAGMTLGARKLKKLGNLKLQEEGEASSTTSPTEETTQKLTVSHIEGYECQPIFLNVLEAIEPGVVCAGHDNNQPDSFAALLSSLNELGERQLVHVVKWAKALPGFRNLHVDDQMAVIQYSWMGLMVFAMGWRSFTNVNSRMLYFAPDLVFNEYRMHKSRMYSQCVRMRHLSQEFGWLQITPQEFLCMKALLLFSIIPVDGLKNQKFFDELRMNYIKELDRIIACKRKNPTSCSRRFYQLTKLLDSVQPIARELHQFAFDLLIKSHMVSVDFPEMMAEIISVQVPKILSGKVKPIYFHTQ
Nature of the test: Degradation of AR protein in LNCaP cells (Western blot). It counts as cell-based. Conditions: for inhibition at 0.01 µM: read-out: Degradation rates of the AR protein in LNCaP cells, 10 nM (%); for inhibition at 0.1 µM: read-out: Degradation rates of the AR protein in LNCaP cells, 100 nM (%). The procedure: The degradation activity of the compounds disclosed in the present disclosure on AR protein in LNCaP cells (cell source: ATCC)
(§1) Corresponding solvent controls were also set and cultured for 8 hours. After 8 hours of cultivation, the culture medium was removed and the cells were washed with PBS. RIPA lysis buffer containing 1% Protease Inhibitor Cocktail was added, and the total protein extract was obtained by lysis and centrifugation. The protein concentration in the extract was detected by BCA method. Protein electrophoresis was performed using SDS-PAGE, followed by transfer of the protein onto a PVDF (Millipore Sigma catalog No. PSRP010R5) membrane at 100V constant voltage for 60 minutes. The PVDF membrane was then placed in a 1×TBST solution with 5% milk and blocked at room temperature for 1 hour. […] The primary antibody solution was discarded and the PVDF membrane was washed three times with 1×TBST for 5 minutes/time. […] The secondary antibody solution was discarded and the PVDF membrane was washed three times with 1×TBST for 5 minutes/time. Western blot imaging was performed by using a dual color infrared laser imaging system (Licor catalog No. Odyssey CLX). Bands were analyzed in grayscale using Image Studio software. For each sample, GAPDH protein bands were detected as internal reference. The degradation rates of the AR protein for the compounds and the positive control sample were calculated based on grayscale of the protein bands.

Test [2] concerns the target T2, AR protein (Homo sapiens, UniProt P10275).
T2 construct: degradation activity of the compounds disclosed in the present disclosure on AR protein in VCaP cells; host or cells: VCaP
T2 sequence (P10275 1-920): T1 sequence (P10275 1-920 T878A) with A878T
Kind of test: Degradation of AR protein in VCaP cells (Western blot). The class given is cell-based. The note with it: 8 hours; for inhibition at 0.01 µM: read-out: Degradation rate of the AR protein in VCaP cells, 10 nM (%); for inhibition at 0.1 µM: read-out: Degradation rate of the AR protein in VCaP cells, 100 nM (%). The procedure: The degradation activity of the compounds disclosed in the present disclosure on AR protein in VCaP cells (cell source: ATCC)
as §1
A general note: Immunoblotting shows a protein as a band on a membrane.

Where [3] appears, read: LNCaP cells, compound 10 nM, 8 hours, Western blot grayscale, GAPDH internal reference.
Setting [4] is: LNCaP cells, compound 100 nM, 8 hours, Western blot grayscale, GAPDH internal reference.

Consider `N#Cc1ccc(O[C@H]2CC[C@H](NC(=O)c3cnc(N4CCC5(CC4)COc4c5ccc5c4CN(C4CCC(=O)NC4=O)C5=O)nc3)CC2)cc1Cl` (some centres unmarked) [Compound 201], for which the figures for the inhibition at 0.01 µM on AR protein [1] (setting [3]) and on AR protein [2] (compound at 10 nM) were 6% and -11%, respectively. The inhibition at 0.1 µM on AR protein [1] (setting [4]) and on AR protein [2] (compound at 100 nM) was 32% each time.
`N#Cc1ccc(O[C@H]2CC[C@H](NC(=O)c3ccc(N4CCC5(CCC(N6CCC7(CC6)COc6c7ccc7c6CN(C6CCC(=O)NC6=O)C7=O)CC5)CC4)nn3)CC2)cc1Cl` (some centres unmarked) [Compound 137]: the inhibition at 0.01 µM worked out at 68% on AR protein [1] (setting [3]) and 80% on AR protein [2] (compound at 10 nM). Also, the inhibition at 0.1 µM at AR protein [1] (setting [4]) worked out at 21%; on AR protein [2] (compound at 100 nM), 90%.
The matching figures for `COC1(CN2CC3(CCc4cc5c(cc4O3)C(=O)N(C3CCC(=O)NC3=O)C5)C2)CCN(c2ccc(C(=O)N[C@H]3CC[C@H](Oc4ccc(C#N)c(Cl)c4)CC3)nn2)CC1` (some centres unmarked) [Compound 9]: 56%, 87%, 66% and 82%.
Regarding `N#Cc1ccc(O[C@H]2CC[C@H](NC(=O)c3cnc(N4CCC(F)(CN5CCC6(CC5)COc5c6ccc6c5CN(C5CCC(=O)NC5=O)C6=O)CC4)nc3)CC2)cc1Cl` (some centres unmarked) [Compound 158], the inhibition at 0.01 µM is 43% on AR protein [1] (setting [3]) and 62% on AR protein [2] (compound at 10 nM). Also, the inhibition at 0.1 µM on AR protein [1] (setting [4]) came out at 37%; at AR protein [2] (compound at 100 nM) it was 81%.
Turning to `N#Cc1ccc(O[C@H]2CC[C@H](NC(=O)c3ccc(N4CCC5(CC4)CC(N4CCC6(CC4)COc4c6ccc6c4CN(C4CCC(=O)NC4=O)C6=O)C5)nn3)CC2)cc1Cl` (some centres unmarked) [Compound 184], at AR protein [1] (setting [3]), the inhibition at 0.01 µM worked out at 79%. Further, on AR protein [1] (setting [4]), the inhibition at 0.1 µM stood at 41%.
`N#Cc1ccc(O[C@H]2CC[C@H](NC(=O)c3ccc(N4CCC5(CC4)CC(N4CCC6(CC4)COc4cc7c(cc46)C(=O)N(C4CCC(=O)NC4=O)C7=O)C5)nn3)CC2)cc1Cl` (some centres unmarked) [Compound 47]: the values for the inhibition at 0.01 µM at AR protein [1] (setting [3]) and on AR protein [2] (compound at 10 nM) were 54% and 82%, respectively. Besides, the inhibition at 0.1 µM at AR protein [1] (setting [4]) was 67%; at AR protein [2] (compound at 100 nM), 79%.
Regarding `N#Cc1ccc(O[C@H]2CC[C@H](NC(=O)c3ccc(N4CCC(CN5CCC6(CC5)Cc5cc7c(cc5O6)C(=O)N(C5CCC(=O)NC5=O)C7=O)CC4)nn3)CC2)cc1Cl` (some centres unmarked) [Compound 78], the inhibition at 0.01 µM on AR protein [1] (setting [3]) is 67%; at AR protein [2] (compound at 10 nM), 72%. In addition, the inhibition at 0.1 µM was 70% on AR protein [1] (setting [4]) and 57% at AR protein [2] (compound at 100 nM).
As for `N#Cc1ccc(O[C@H]2CC[C@H](NC(=O)c3ccc(N4CCC(C#N)(CN5CCC6(CC5)COc5c6ccc6c5CN(C5CCC(=O)NC5=O)C6=O)CC4)nn3)CC2)cc1Cl` (some centres unmarked) [Compound 156], the inhibition at 0.01 µM on AR protein [1] (setting [3]) is 52%; on AR protein [2] (compound at 10 nM) it was 37%. Moreover, the inhibition at 0.1 µM at AR protein [1] (setting [4]) stood at 53%; at AR protein [2] (compound at 100 nM), 75%.
As to `CCOC1(CN2CCC3(CC2)COc2c3ccc3c2CN(C2CCC(=O)NC2=O)C3=O)CCN(c2ccc(C(=O)N[C@H]3CC[C@H](Oc4ccc(C#N)c(Cl)c4)CC3)nn2)CC1` (some centres unmarked) [Compound 155], the results for the inhibition at 0.01 µM on AR protein [1] (setting [3]) and at AR protein [2] (compound at 10 nM) were 29% and 58%, respectively. The inhibition at 0.1 µM on AR protein [1] (setting [4]) is 1%; at AR protein [2] (compound at 100 nM), 80%.
In the case of `N#Cc1ccc(O[C@H]2CC[C@H](NC(=O)c3ccc(N4CCC(N5CC(N6CCC7(CC6)COc6c7ccc7c6CN(C6CCC(=O)NC6=O)C7=O)C5)CC4)nn3)CC2)cc1Cl` (some centres unmarked) [Compound 144], the results for the inhibition at 0.01 µM on AR protein [1] (setting [3]) and on AR protein [2] (compound at 10 nM) were 68% and 82%, respectively. The figures for the inhibition at 0.1 µM at AR protein [1] (setting [4]) and at AR protein [2] (compound at 100 nM) were 39% and 86%, respectively.
Consider `N#Cc1ccc(O[C@H]2CC[C@H](NC(=O)c3ccc(N4CCC(CN5CC6(CCc7cc8c(cc7O6)C(=O)N(C6CCC(=O)NC6=O)C8=O)C5)CC4)nn3)CC2)cc1Cl` (some centres unmarked) [Compound 1], for which the inhibition at 0.01 µM was determined as 44% on AR protein [1] (setting [3]) and 65% at AR protein [2] (compound at 10 nM). The inhibition at 0.1 µM on AR protein [1] (setting [4]) was determined as 82%; at AR protein [2] (compound at 100 nM), 79%.
Take `CC1(CN2CCC3(CC2)COc2c3ccc3c2CN(C2CCC(=O)NC2=O)C3=O)CCN(c2ncc(C(=O)N[C@H]3CC[C@H](Oc4ccc(C#N)c(Cl)c4)CC3)cn2)CC1` (some centres unmarked) [Compound 193]: the inhibition at 0.01 µM at AR protein [1] (setting [3]) was 18%; at AR protein [2] (compound at 10 nM), 21%. The inhibition at 0.1 µM on AR protein [1] (setting [4]) was 31%; on AR protein [2] (compound at 100 nM), 78%.
`N#Cc1ccc(O[C@H]2CC[C@H](NC(=O)c3ccc(N4CCC5(CC4)CC(N4CCC6(CCc7cc8c(cc7O6)C(=O)N(C6CCC(=O)NC6=O)C8=O)CC4)C5)nn3)CC2)cc1Cl` (some centres unmarked) [Compound 31]: the values for the inhibition at 0.01 µM on AR protein [1] (setting [3]) and at AR protein [2] (compound at 10 nM) were 52% and 67%, respectively. For the same compound, the inhibition at 0.1 µM at AR protein [1] (setting [4]) was found to be 69%; on AR protein [2] (compound at 100 nM), 70%.
For the compound `N#Cc1ccc(O[C@H]2CC[C@H](NC(=O)c3ccc(N4CCC(N5CCC6(CC5)COc5c6ccc6c5CN(C5CCC(=O)NC5=O)C6=O)CC4)nn3)CC2)cc1Cl` (some centres unmarked) [Compound 169], the inhibition at 0.01 µM at AR protein [1] (LNCaP, 8 h) came out at 75%; at AR protein [2] (compound at 10 nM), 79%. Also, the inhibition at 0.1 µM at AR protein [1] (LNCaP, 8 h) came to 53%; at AR protein [2] (compound at 100 nM), 82%.
Regarding `N#Cc1ccc(O[C@H]2CC[C@H](NC(=O)c3ccc(N4CC5(CC(N6CCC7(CC6)COc6c7ccc7c6C(=O)N(C6CCC(=O)NC6=O)C7=O)C5)C4)nn3)CC2)cc1Cl` (some centres unmarked) [Compound 140], the “Degradation rate of the AR protein in VCaP cells, 10 nM (%)” value on AR protein [2] (compound at 10 nM) is listed as −14%. The “Degradation rate of the AR protein in VCaP cells, 100 nM (%)” value on AR protein [2] (compound at 100 nM) is on record as 38%.
